We go through 15 compounds from patent US9487462B2, “Inhibitors of matrix metalloproteinases” (PharmaHungary 2000 Kft., priority 2010, dated 2016).

Structures can show the parent of a compound that is named as a salt.

One data set addresses MMP9 (Homo sapiens, UniProt P14780). Briefly: MMP activity assay (fluorogenic substrate), MMP9 catalytic domain. It counts as biochemical. The conditions noted are these: Table 2. How it is done: (§1) MMP activity assays were conducted as follows: MMP2, MMP9, MMP13 catalytic domain was expressed in E. coli in form of inclusion bodies followed by refolding and purification.
(§2) The Protocol of the Activity Assay:
(§3) Stock solution of substrate (Mca-Lys-Pro-Leu-Gly-Leu-Dpa-Ala-Arg-NH2) was prepared in DMSO at a concentration of 6 mM. Assays were performed in an assay buffer (50 mM Tris pH 7.5, 300 mM NaCl, 10 μM ZnSO4, 5 mM CaCl2, 0.005% Brij-35). The final DMSO concentration in all assays was 1.0%. […] The assays were carried out at 37° C. The fluorescence changes, resulting from the substrate cleavage, were detected using excitation at 340 nm and emission wavelength of 405 nm using a Wallac 1420 Microplate Reader. The reaction mixtures were preincubated with the inhibitors for 30 minutes. The reactions were started by the addition of MMP substrate, and the fluorescence intensity changes were measured after 60 minutes. The obtained fluorescence values were normalized and % inhibition values calculated. Dose response curves were determined from 6 concentration points using three fold dilution steps, each concentration point was determined in duplicate. IC50 values were calculated from the dose response curves.

The target of another data set is MMP13 (Homo sapiens (Human), UniProt P45452). Briefly: MMP activity assay (fluorogenic substrate), MMP13 catalytic domain. It is filed as biochemical. The conditions noted are these: Table 2; read-out: MMP13 IC50. On the procedure: as §1, §2
as §3, with “The fluorescence changes, resulting from the substrate cleavage, were detected using excitation at 340 nm and emission wavelength of 405 nm using a Wallac 1420 Microplate Reader.” left out

In another data set the target is MMP2 (Homo sapiens, UniProt P08253). In words: MMP activity assay (fluorogenic substrate), MMP2 catalytic domain. It counts as biochemical. The settings on record: Table 2; read-out: MMP2 IC50. How it is done:
as §1, §2, §3

In a further data set the target is MMP1 (Homo sapiens (Human), UniProt P03956). Briefly: MMP activity assay (fluorogenic substrate), MMP1. It is filed as biochemical. The settings on record: Table 2; read-out: MM1 IC50.
MMP1, sequence (P03956 100-469, species assumed): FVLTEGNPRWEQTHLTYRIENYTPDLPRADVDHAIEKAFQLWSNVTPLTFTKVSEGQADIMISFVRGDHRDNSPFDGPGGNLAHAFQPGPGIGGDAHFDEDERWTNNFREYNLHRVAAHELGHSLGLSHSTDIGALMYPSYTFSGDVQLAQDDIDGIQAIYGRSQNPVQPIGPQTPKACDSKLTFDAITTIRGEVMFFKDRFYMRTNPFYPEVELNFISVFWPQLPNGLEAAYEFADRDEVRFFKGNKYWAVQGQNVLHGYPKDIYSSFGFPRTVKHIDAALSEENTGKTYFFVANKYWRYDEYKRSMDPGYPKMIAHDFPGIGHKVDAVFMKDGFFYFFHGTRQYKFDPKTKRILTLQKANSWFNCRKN
Data set [1] can be described thus: Cytotoxicity, alamarBlue viability, MRC-5. It is filed as cell-based. The settings on record: human, MRC-5 fibroblast cells, 48 hours incubation, read-out: MRC-5 LC50. On the procedure: (§4) Beside the inhibitory effect on MMPs we tested the cytotoxicity of the selected compounds. These measurements were done in parallel on two cell lines. One of them was the healthy human fibroblast cell line MRC-5 while the other was the human colon tumor cell line HCT116. The viability of the cells was monitored using alamarBlue. This dye is reduced by the cells resulting in an increased fluorescent signal which is proportional to the number of living cells. Cells were incubated with the dilutions of the tested compounds for 48 hours then alamarBlue was added to them for 4 hours. After that the fluorescence changes were detected using excitation at 540 nm and emission wavelength of 590 nm by a Wallac 1420 Microplate Reader. IC50 values were determined for the compounds using six concentrations and duplicate points for each concentration.
Background: Alamar Blue is a resazurin reagent that responds to reducing activity.

Data set [2] can be described thus: Cytotoxicity, alamarBlue viability, HCT116. The settings on record: human, HCT116 colon tumor cells, 48 hours incubation, read-out: HCT116 LC50. It counts as cell-based. How it is done:
as §4

The subject of data set [3] is neonatal rat cardiac myocytes. In words: Cytoprotective effect in cardiac myocytes subjected to hypoxia and reoxygenation. It is filed as cell-based. On the procedure: Neonatal rat hearts were digested and isolated cardiomyocytes were plated onto 24-well plastic plates at […]. The cells were maintained at 37° C. in a humidified atmosphere of 5% CO2 and 95% air in a CO2 incubator until confluence was reached. Cultures at day 3 were used for treatments. Cells were kept under normoxic or simulated ischemic conditions, i.e. the growth medium was changed to a normoxic or hypoxic solution and the cells were incubated under 95% air and 5% CO2 or 95% N2 and 5% CO2 at 37° C. for 4 h, respectively as described in detail (Gorbe A, Giricz Z, Szunyog A, Csont T, Burley D S, Baxter G F, Ferdinandy P. Role of cGMP-PKG signaling in the protection of neonatal rat cardiac myocytes subjected to simulated ischemia/reoxygenation. Basic Res Cardiol. 105:643-650, 2010). The positive control ilomastate (0.5 microM) and MMP-inhibitors at different effective concentrations (EC 5, EC 10, EC 20, and EC50 as determined in previous test examples) were applied during normoxia or simulated ischemia and also during reoxygenation. The vehicle was DMSO. Cell viability was determined after Calcein A M fluorescent staining as described (Karliner J S, Honbo N, Summers K, Gray M O, Goetzl E J. The lysophospholipids sphingosine-1-phosphate and lysophosphatidic acid enhance survival during hypoxia in neonatal rat cardiac myocytes. J Mol Cell Cardiol, 33:1713-7, 2001). Total cell count was determined after digitonin treatment to permeabilize the cells by using propidium iodine fluorescent staining (Roy S S, Hajnoczky G. Calcium, mitochondria and apoptosis studied by fluorescence measurements. Methods. 46:213-223, 2008).

For orientation: IC50 means the concentration needed to halve the response being measured. On to `O=C(O)c1csc(CN(Cc2ccc(F)cc2)Cc2ccc(OCc3ccncc3)cc2)n1` [Compound 9, 2-({[(4-Fluorophenyl)methyl]({[4-(pyridin-4-ylmethoxy)phenyl]methyl})amino}methyl)-1,3-thiazole-4-carboxylic acid], for which the IC50 on MMP9 is 8.8 µM; on MMP13, 1.24 µM; on MMP2, 8 µM; on MMP1, 47 µM. Moreover, the results for the CC50 at 48 h in data set [1] and in data set [2] were 12 µM and 4.7 µM, respectively.
On to `O=C(O)c1cnc(-c2ccccc2)[nH]1` [Compound 40, 2-Phenyl-3H-imidazole-4-carboxylic acid], for which the IC50 came out at 250 µM on MMP9, 165 µM on MMP13 and 137 µM at MMP2.
Regarding `CCOC(=O)c1csc(CN(Cc2ccc(F)cc2)Cc2ccc(OCc3ccccc3)cc2)n1` [Compound 11, Ethyl 2-[({[4-(benzyloxy)phenyl]methyl}[(4-fluorophenyl)methyl]amino)methyl]-1,3-thiazole-4-carboxylate], the CC50 at 48 h is 12 µM in data set [1] and 5.8 µM in data set [2].
Take `CCOC(=O)c1csc(CN(Cc2ccc(F)cc2)Cc2ccc(-c3ccccc3)cc2)n1` [Compound 32, 2-{[Biphenyl-4-ylmethyl-(4-fluoro-benzyl)-amino]-methyl}-thiazole-4-carboxylic acid ethylester]: the IC50 on MMP9 is 200 µM; at MMP13, 31 µM; on MMP2, more than 500 µM; on MMP1, 90 µM. Further, the CC50 at 48 h was determined as 13 µM in data set [1] and 0.7 µM in data set [2].
As to `CCOC(=O)c1csc(CN(Cc2ccc(OCc3ccncc3)cc2)Cc2cccnc2)n1` [Compound 19, Ethyl 2-{[(pyridin-3-ylmethyl)({[4-(pyridin-4-ylmethoxy)phenyl]methyl})amino]methyl}-1,3-thiazole-4-carboxylate], the IC50 was more than 500 µM against MMP9, 19 µM on MMP13, 200 µM at MMP2 and 190 µM at MMP1. Moreover, the CC50 at 48 h came out at 27 µM in data set [1] and 7.3 µM in data set [2].
For the compound `CCOC(=O)c1csc(CN(Cc2ccc(F)cc2)Cc2ccc(OCc3cccnc3)cc2)n1` [Compound 2, Ethyl 2-({[(4-fluorophenyl)methyl]({[4-(pyridin-3-ylmethoxy)phenyl]methyl})amino}methyl)-1,3-thiazole-4-carboxylate], the IC50 worked out at 163 µM at MMP9, 3.7 µM on MMP13, 105 µM at MMP2 and 185 µM at MMP1. Also, the CC50 at 48 h turned out to be 0.8 µM in data set [1] and 0.5 µM in data set [2].
Take `FC(F)(F)c1cnc(CCc2ccccc2)[nH]1` [Compound 35, 2-Phenethyl-5-trifluoromethyl-1H-imidazole]: the figures for the IC50 on MMP9, at MMP13 and on MMP2 were more than 500 µM, 500 µM and more than 500 µM, respectively.
As to `CCOC(=O)c1csc(CN(Cc2ccncc2)Cc2ccc(OCc3ccccc3)cc2)n1` [Compound 20, Ethyl 2-[({[4-(benzyloxy)phenyl]methyl}(pyridin-4-ylmethyl)amino)methyl]-1,3-thiazole-4-carboxylate], the IC50 on MMP9 was more than 500 µM; on MMP13, 7.5 µM; at MMP2 it was more than 500 µM; on MMP1, 325 µM. Also, the CC50 at 48 h was 13 µM in data set [1] and 16 µM in data set [2].
Turning to `FC(F)(F)c1cnc(-c2ccccc2)[nH]1` [Compound 39, 2-Phenyl-5-trifluoromethyl-1H-imidazole], the IC50 against MMP9 is more than 500 µM; on MMP13, 340 µM; on MMP2, more than 500 µM.
`O=C(O)c1csc(CN(Cc2ccc(OCc3cccnc3)cc2)Cc2cccc(F)c2)n1` [Compound 8, 2-[({[4-(Pyridin-3-ylmethoxy)phenyl]methyl}[(3-fluorophenyl)methyl]amino)methyl]-1,3-thiazole-4-carboxylic acid]: the “Cytoprotective effect, % cell survival as compared to vehicle DMSO” value (from here on “Cytoprotective effect, % cell survival”) is 99 ± 4% in data set [3] (normoxia, EC5 concentration 0.7 microM); 103 ± 4% in data set [3] (normoxia, EC10 concentration 2.0 microM); 119 ± 5 % in data set [3] (normoxia, EC20 concentration 6.0 microM); 127 ± 4 % in data set [3] (normoxia, EC50 concentration 18.0 microM); 117 ± 12% in data set [3] (simulated ischemia, EC5 concentration 0.7 microM); 120 ± 8% in data set [3] (simulated ischemia, EC10 concentration 2.0 microM). The “Cytoprotective effect, % cell survival” value in data set [3] (simulated ischemia, EC20 concentration 6.0 microM) was 144 ± 25%; in data set [3] (simulated ischemia, EC50 concentration 18.0 microM), 107 ± 8%.
On to `O=C(O)c1c[nH]c(CNCc2ccc(OCc3cccnc3)cc2)n1` [Compound 31 HCl, 2-[({[4-(Pyridin-3-ylmethoxy)phenyl]methyl}amino)methyl]-1H-imidazole-4-carboxylic acid], for which the “Cytoprotective effect, % cell survival” value is on record as 108 ± 4% in data set [3] (normoxia, EC5 concentration 0.25 microM); 103 ± 3% in data set [3] (normoxia, EC10 concentration 1.0 microM); 106 ± 4% in data set [3] (normoxia, EC20 concentration 4.0 microM); 103 ± 3% in data set [3] (normoxia, EC50 concentration 16.0 microM); 116 ± 8 % in data set [3] (simulated ischemia, EC5 concentration 0.25 microM); 107 ± 3% in data set [3] (simulated ischemia, EC10 concentration 1.0 microM). Further, the “Cytoprotective effect, % cell survival” value was 126 ± 2 % in data set [3] (simulated ischemia, EC20 concentration 4.0 microM) and 127 ± 3 % in data set [3] (simulated ischemia, EC50 concentration 16.0 microM).
As for `O=C(O)c1csc(CN(Cc2ccc(OCc3ccccc3)cc2)CC(c2ccccc2)c2ccccc2)n1` [Compound 6, 2-[({[4-(Benzyloxy)phenyl]methyl}(2,2-diphenylethyl)amino)methyl]-1,3-thiazole-4-carboxylic acid], the CC50 at 48 h is 18 µM in data set [1] and 3.5 µM in data set [2].
Take `O=C(c1cnc(CCc2ccccc2)[nH]1)N1CCCC1` [Compound 38, (2-Phenethyl-3H-imidazol-4-yl)-pyrrolidin-1-yl-methanone]: the IC50 against MMP9 is 80 µM; on MMP13 it was 54 µM; on MMP2 it was 62 µM.
The corresponding values for `COC(=O)c1cnc(CCc2ccccc2)[nH]1` [Compound 37, 2-Phenethyl-3H-imidazole-4-carboxylic acid methyl ester] are 145 µM, more than 500 µM and 66 µM.
As to `O=C(O)c1cnc(CCc2ccccc2)[nH]1` [Compound 36, 2-Phenethyl-3H-imidazole-4-carboxylic acid], the IC50 on MMP9 was more than 500 µM; on MMP13 it was 300 µM; at MMP2 it was more than 500 µM.
